ChEMBL document CHEMBL4842361, “Design, synthesis and biological activities of benzo[d]imidazo[1,2-a]imidazole derivatives as TRPM2-specfic inhibitors” (Eur J Med Chem, 2021)
The source made the active and inactive calls. No cut-off for these calls is given here.

What was measured:
[1] = target: T1, Transient receptor potential cation channel subfamily M member 2 (Homo sapiens, UniProt O94759); experiment: Inhibition of human TRPM2 expressed in HEK293T cells cotransfected with GFP assessed as reduction in ADPR-induced current at 10 uM by whole cell patch-clamp method relative to control; assay type: cell-based
T1 sequence (O94759 whole entry): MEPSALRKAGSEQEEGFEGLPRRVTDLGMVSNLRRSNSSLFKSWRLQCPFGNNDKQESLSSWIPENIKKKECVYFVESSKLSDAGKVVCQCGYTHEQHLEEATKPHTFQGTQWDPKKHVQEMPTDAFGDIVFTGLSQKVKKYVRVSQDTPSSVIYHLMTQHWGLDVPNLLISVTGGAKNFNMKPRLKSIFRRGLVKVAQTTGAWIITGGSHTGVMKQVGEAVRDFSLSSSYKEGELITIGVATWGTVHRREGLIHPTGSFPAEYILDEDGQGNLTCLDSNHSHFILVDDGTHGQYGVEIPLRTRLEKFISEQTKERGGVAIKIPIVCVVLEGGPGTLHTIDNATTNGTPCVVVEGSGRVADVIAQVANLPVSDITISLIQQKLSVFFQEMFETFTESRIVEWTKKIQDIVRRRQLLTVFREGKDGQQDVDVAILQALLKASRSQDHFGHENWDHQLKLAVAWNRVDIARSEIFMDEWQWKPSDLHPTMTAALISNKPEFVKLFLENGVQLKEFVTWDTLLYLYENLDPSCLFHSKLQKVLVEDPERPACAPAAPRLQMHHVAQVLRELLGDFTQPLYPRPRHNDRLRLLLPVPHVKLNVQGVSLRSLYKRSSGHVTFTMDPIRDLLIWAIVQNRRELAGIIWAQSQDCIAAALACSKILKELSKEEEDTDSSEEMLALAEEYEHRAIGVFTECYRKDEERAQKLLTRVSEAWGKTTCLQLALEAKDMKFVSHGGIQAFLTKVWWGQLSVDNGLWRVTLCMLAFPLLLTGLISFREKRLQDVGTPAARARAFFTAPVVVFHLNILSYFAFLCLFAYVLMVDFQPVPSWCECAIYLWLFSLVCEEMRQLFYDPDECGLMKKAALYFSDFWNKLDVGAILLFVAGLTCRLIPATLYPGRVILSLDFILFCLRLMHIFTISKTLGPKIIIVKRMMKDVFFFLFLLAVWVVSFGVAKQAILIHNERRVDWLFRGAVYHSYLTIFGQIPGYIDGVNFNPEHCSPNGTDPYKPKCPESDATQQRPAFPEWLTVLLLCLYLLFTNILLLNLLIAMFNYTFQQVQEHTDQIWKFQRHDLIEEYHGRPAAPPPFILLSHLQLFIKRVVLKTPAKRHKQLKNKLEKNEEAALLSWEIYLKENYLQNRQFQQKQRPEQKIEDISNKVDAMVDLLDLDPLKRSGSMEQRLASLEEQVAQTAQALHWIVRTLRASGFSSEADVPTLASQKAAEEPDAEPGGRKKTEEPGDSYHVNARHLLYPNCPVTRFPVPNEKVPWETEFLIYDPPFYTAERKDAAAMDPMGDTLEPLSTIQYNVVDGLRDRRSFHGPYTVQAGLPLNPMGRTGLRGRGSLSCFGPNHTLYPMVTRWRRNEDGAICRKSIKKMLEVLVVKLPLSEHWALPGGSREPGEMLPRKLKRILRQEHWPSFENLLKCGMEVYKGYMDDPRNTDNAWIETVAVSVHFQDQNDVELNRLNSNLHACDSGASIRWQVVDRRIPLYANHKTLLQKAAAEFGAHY

[2] = target: T1, Transient receptor potential cation channel subfamily M member 2; experiment: Inhibition of human TRPM2 expressed in HEK293T cells cotransfected with GFP assessed as reduction in ADPR-induced current at 30 uM by whole cell patch-clamp method relative to control; assay type: cell-based
[3] = target: T1, Transient receptor potential cation channel subfamily M member 2; experiment: Inhibition of human TRPM2 expressed in HEK293T cells cotransfected with GFP assessed as reduction in ADPR-induced current by whole cell patch-clamp method; assay type: cell-based
[4] = target: Transient receptor potential cation channel subfamily M member 8 (Rattus norvegicus) (UniProt Q8R455); experiment: Inhibition of rat TRPM8 expressed in HEK293T cells cotransfected with GFP assessed as inhibition of […]-induced current at 30 uM by whole cell patch-clamp method relative to control; assay type: cell-based
Chain of Transient receptor potential cation channel subfamily M member 8 (Rattus norvegicus) (Q8R455 whole entry, looked up): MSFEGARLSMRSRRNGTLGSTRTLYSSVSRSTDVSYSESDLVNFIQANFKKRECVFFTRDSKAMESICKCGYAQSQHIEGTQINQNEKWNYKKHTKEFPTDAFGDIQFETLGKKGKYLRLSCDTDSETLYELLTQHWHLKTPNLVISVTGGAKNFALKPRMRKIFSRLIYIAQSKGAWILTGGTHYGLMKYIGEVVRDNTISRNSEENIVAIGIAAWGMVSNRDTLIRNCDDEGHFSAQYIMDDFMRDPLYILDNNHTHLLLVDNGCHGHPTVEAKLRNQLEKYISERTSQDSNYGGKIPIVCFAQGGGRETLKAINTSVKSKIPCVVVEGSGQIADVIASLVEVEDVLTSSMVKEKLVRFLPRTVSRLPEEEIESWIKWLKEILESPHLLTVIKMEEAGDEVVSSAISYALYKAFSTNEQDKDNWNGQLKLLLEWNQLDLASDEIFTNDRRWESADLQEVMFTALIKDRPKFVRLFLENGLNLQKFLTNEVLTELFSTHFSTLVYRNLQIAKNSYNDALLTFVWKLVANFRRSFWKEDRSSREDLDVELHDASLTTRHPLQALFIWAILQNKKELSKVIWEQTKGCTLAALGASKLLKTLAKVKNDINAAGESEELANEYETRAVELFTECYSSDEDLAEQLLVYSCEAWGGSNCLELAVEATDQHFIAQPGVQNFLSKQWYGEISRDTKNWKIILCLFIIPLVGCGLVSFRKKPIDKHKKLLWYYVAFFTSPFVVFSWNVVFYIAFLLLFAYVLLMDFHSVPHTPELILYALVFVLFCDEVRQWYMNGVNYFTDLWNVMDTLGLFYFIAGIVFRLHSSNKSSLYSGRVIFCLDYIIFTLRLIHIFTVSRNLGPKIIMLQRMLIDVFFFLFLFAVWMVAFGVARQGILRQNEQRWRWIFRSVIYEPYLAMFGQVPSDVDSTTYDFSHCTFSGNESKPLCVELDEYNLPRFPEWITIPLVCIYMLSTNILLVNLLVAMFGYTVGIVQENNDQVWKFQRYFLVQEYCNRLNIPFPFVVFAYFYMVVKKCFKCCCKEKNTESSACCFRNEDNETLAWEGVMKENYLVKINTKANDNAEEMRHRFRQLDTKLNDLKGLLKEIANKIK

[5] = target: Transient receptor potential cation channel subfamily V member 1 (Homo sapiens) (UniProt Q8NER1); experiment: Inhibition of TRPV1 (unknown origin) assessed as inhibition of capsaicin-induced current at 30 uM by whole cell patch-clamp method relative to control
Chain of Transient receptor potential cation channel subfamily V member 1 (Homo sapiens) (Q8NER1 whole entry): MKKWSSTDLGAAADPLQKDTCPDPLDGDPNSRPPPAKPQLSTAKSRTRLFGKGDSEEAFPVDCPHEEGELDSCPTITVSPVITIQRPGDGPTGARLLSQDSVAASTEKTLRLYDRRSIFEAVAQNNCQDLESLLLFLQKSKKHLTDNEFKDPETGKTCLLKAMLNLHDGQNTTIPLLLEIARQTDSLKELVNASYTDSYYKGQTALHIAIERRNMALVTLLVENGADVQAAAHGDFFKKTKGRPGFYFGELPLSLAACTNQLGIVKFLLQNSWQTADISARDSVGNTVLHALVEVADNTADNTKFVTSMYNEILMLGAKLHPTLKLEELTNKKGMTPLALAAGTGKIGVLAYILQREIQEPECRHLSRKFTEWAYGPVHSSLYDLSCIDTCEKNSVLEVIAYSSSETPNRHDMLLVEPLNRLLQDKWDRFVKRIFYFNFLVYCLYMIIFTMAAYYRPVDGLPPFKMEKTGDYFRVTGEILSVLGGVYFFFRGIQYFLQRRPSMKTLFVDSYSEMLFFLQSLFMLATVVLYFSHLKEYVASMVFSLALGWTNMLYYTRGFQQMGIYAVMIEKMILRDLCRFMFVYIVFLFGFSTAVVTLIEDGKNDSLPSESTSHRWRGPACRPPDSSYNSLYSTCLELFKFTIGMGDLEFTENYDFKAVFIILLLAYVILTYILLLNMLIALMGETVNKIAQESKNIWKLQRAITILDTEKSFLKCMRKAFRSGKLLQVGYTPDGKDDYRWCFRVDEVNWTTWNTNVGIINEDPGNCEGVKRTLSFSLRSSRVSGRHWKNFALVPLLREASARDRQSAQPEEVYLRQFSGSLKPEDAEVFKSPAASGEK

SH-SY5Y [6] = experiment: Neuroprotection against H202-induced cell death in human SH-SY5Y cells assessed as increase in cell viability at 100 uM after 24 hrs by CCK8 assay; assay type: functional, cell-based
SH-SY5Y [7] = experiment: Neuroprotection against H202-induced cell death in TRPM2 knockdown human SH-SY5Y cells assessed as increase in cell viability at 100 uM after 24 hrs by CCK8 assay; assay type: functional, cell-based
SH-SY5Y [8] = experiment: Cytotoxicity against human SH-SY5Y cells at 30 uM measured after 24 hrs by CCK-8 assay; assay type: cell-based

| SMILES | inhibition [1] | inhibition [2] | IC50 [3] | inhibition [4] | inhibition [5] | Activity (SH-SY5Y [6]) | Activity (SH-SY5Y [7]) | Activity (SH-SY5Y [8]) |
| --- | --- | --- | --- | --- | --- | --- | --- | --- |
| CCN(CC)CCn1c2ccccc2n2c(C(C)=O)c(C)nc12 | 50% |  |  |  |  |  |  |  |
| CCN(CC)CCn1c2ccccc2n2c(C(=O)c3ccc(-c4ccccc4)cc3)c(C)nc12 |  | 90% | 6.2 µM | 26% | 40% | Active | inactive | Non-Toxic |
| CCN(CC)CCn1c2ccccc2n2c(C(=O)c3cc4ccccc4o3)c(C)nc12 |  | 90% | 8.1 µM | 36% | 22% | Active | inactive | Non-Toxic |
